# From patent US20250066359A1, “SOMATOSTATIN RECEPTOR SUBTYPE 5 ANTAGONISTS, AND PHARMACEUTICAL COMPOSITION AND USE THEREOF” (SHANGHAI INSTITUTE OF MATERIA MEDICA, CHINESE ACADEMY OF …, priority 2021, published 2025)
# Target: T1, hSSTR5 (Homo sapiens, UniProt P35346)
# T1 construct: expressed in transfected cells; host or cells: CHO cells co-expressing Gα16 (hSSTR5-CHO-Gα16)
# Assay: SSTR5 antagonistic activity in vitro by calcium flow detection (hSSTR5-CHO-Gα16 cells)
# Assay type: cell-based
# Details: hSSTR5-CHO-Gα16 cells, 100 nM Somatostatin-14 agonist, Fluo-4 fluorescence 525 nm
# Description: Testing SSTR5 antagonistic activity in vitro by Calcium flow detection method Experimental principle: After the receptor binds to the ligand and is activated, it can cause the activation of Gα16 protein, which further activates phospholipase C(PLC) to produce IP3 and DAG. IP3 can bind to the IP3 receptors on the endoplasmic reticulum and mitochondria in the cell, thereby causing the release of intracellular calcium. Therefore, measuring the changes in intracellular calcium can be used in the method to detect the activation state of hSSTR5. Fluo-4/AM is a calcium fluorescent probe indicator used to measure calcium ions. As a non-polar lipid-soluble compound, after it enters the cell, the AM group therein dissociates, and Fluo-4 is released under the action of cellular lipase; because Fluo-4 is a polar molecule and is not easy to pass through the lipid bilayer membrane, it can keep Fluo-4 in the cell fora longtime. Finally, the level of Ga protein activation can be reflected by measuring the intensity of the excited fluorescence. Somatostatin, an agonist of SSTR5, can activate SSTR5 receptors and greatly increase the calcium flow response. The SSTR5 antagonist to be tested can inhibit the agonist activity of the SSTR5 receptor and reduce the calcium increased flow response of the receptor stimulated by the agonist.
# • (1) The hSSTR5-CHO-Gα16 and mSSTR5-CHO-Gα16 cell lines stably expressing hSSTR5 or mSSTR5 receptors were seeded at a density of 30,000/well in a 96-well plate and cultured in a 37° C. incubator overnight. • (2) The cells was aspirated off the culture medium, added with freshly prepared dye at 40 μL/well, and incubated in a 37° C. incubator for 45 minutes. • (3) After the dye was aspirated and discarded, the cells were washed with freshly prepared calcium buffer and the culture medium was replaced with 50 μL of calcium buffer. • (4) The SSTR5 agonist Somatostatin-14 was diluted and mixed evenly with calcium buffer. • (5) Detection was performed using a Flextation instrument. Starting from the 15th second, 25 μL of the pre-prepared agonist was automatically added by the instrument, and the fluorescence value at 525 nm was read.
# T1 sequence (P35346 whole entry): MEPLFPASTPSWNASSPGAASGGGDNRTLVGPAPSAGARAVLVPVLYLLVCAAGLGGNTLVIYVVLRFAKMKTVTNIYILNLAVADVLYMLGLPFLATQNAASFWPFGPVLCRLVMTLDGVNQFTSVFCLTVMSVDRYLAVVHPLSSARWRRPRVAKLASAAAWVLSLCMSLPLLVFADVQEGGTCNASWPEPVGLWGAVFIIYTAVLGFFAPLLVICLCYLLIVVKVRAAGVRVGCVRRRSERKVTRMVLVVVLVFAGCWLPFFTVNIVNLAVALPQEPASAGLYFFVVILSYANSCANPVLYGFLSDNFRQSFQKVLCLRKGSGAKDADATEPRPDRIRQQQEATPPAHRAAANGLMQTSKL
row,Structure (SMILES),IC50 [nM]
1,"CCOc1cc(CN2CCC(C3CN(c4ccc(C(=O)O)cc4)C3)CC2)cc(OCC)c1-c1ccc(F)cc1 [Example 4, 4-(3-(1-((2,6-diethoxy-4′-fluoro-[1,1′-biphenyl]-4-yl)methyl)piperidin-4-yl)azetidin-1-yl)benzoic acid]",50 to 200
2,"CCOc1cc(CN2CCN(C3CCN(S(=O)(=O)c4ccc(C(=O)O)cc4)CC3)CC2)cc(OCC)c1-c1ccc(F)cc1 [Example 15, 4-((4-(4-((2,6-diethoxy-4′-fluoro-[1,1′-biphenyl]-4-yl)methyl)piperazin-1-yl)piperidin-1-yl)sulfonyl)benzoic acid]",> 200
3,"CCOc1cc(CN2CCN(S(=O)(=O)c3ccc(OC(F)(F)F)cc3)CC2)cc(OCC)c1-c1ccc(F)cc1 [Example 16, 1-((2,6-diethoxy-4′-fluoro-[1,1′-biphenyl]-4-yl)methyl)-4-((4-(trifluoromethoxy)phenyl)sulfonyl)piperazine]",> 200
4,"CCOc1cc(CN2CC3(CC(Nc4ccc(C(=O)O)cc4)C3)C2)cc(OCC)c1-c1ccc(F)cc1 [Example 6, 4-((2-((2,6-diethoxy-4′-fluoro-[1,1′-biphenyl]-4-yl)methyl)-2-azaspiro[3.3]heptane-6-yl)amino)benzoic acid]",> 200
5,CCOc1cc(CN2CCC(N3CCN(S(=O)(=O)c4ccc(OC(F)(F)F)cc4)CC3)CC2)cc(OCC)c1-c1ccc(F)cc1 [Example 13],> 200
6,"CCOc1cc(CN2CC3(CC(=O)N(c4ccc(C(=O)O)cc4)C3)C2)ccc1C [Example 22, 4-(2-(3-ethoxy-4-methylbenzyl)-7-oxy-2,6-diazaspiro[3.4]octan-6-yl)benzoic acid]",> 200
7,"CCOc1cc(CN2CC3(CC(=O)N(c4ccc(C(=O)O)cc4)C3)C2)ccc1F [Example 21, 4-(2-(3-ethoxy-4-fluorobenzyl)-7-oxy-2,6-diazaspiro[3.4]octan-6-yl)benzoic acid]",> 200

# Now from value to compound:
row,IC50 [nM],Structure (SMILES)
1,50 to 200,"CCOc1cc(CN2CCC3(CC2)CN(c2ccc(C(=O)O)cc2)C3)ccc1F [Example 24, 4-(7-(3-ethoxy-4-fluorobenzyl)-2,7-diazaspiro[3.5]nonan-2-yl)benzoic acid]"
2,50 to 200,"CCOc1cc(CN2CC3(CC(=O)N(c4ccc(C(=O)O)cc4)C3)C2)c(C2CC2)cc1C [Example 8, 4-(2-(2-cyclopropyl-5-ethoxy-4-methylbenzyl)-7-oxo-2,6-diazaspiro[3.4]octane-6-yl)benzoic acid]"
3,50 to 200,"CCOc1cc(CN2CCC3(CC2)CCN(c2ccc(C(=O)O)cc2)C(=O)C3)cc(OCC)c1-c1ccc(F)cc1 [Example 3, 4-(9-((2,6-diethoxy-4′-fluoro-[1,1′-biphenyl]-4-yl)methyl)-2-oxo-3,9-diazaspiro[5.5]undec-3-yl)benzoic acid]"
4,0.1 to 50,"CCOc1cc(CN2CCC3(CC2)CN(c2ccc(C(=O)O)cc2)C3)c(C2CC2)cc1C [Example 19, 4-(7-(2-cyclopropyl-5-ethoxy-4-methylbenzyl)-2,7-diazaspiro[3,5]nonan-2-yl)benzoic acid]"
5,50 to 200,"CCOc1cc(CN2CCC3(CC2)CN(c2ccc(C(=O)O)cc2)C3)c(-c2ccc(F)c(F)c2F)cc1C [Example 20, 4-(7-((4-ethoxy-2′,3′,4′-trifluoro-5-methyl-[1,1′-biphenyl]-2-yl)methyl)-2,7-diazaspiro[3,5]nonan-2-yl)benzoic acid]"
6,50 to 200,"CCOc1cc(CN2CCC3(CCC(=O)N(c4ccc(C(=O)O)cc4)C3)CC2)cc(OCC)c1-c1ccc(F)cc1 [Example 1, 4-(9-((2,6-diethoxy-4′-fluoro-[1,1′-biphenyl]-4-yl)methyl)-3-oxo-2,9-diazaspiro[5.5]undec-2-yl)benzoic acid]"
7,0.1 to 50,"CCOc1cc(CN2CCC3(CC2)CN(c2ccc(C(=O)O)cc2)C3=O)cc(OCC)c1-c1ccc(F)cc1 [Example 18, 4-(7-((2,6-diethoxy-4′-fluoro-[1,1′-biphenyl]-4-yl)methyl)-1-oxo-2,7-diazaspiro[3.5]nonan-2-yl)benzoic acid]"

# Same assay, conditions: summary of Table 1
row,SSTR5 antagonistic activity (in words),Structure (SMILES)
1,potent SSTR5 antagonistic activity,"CCOc1cc(CN2CCC3(CC2)CN(c2ccc(C(=O)O)cc2)C3)c(C2CC2)cc1C [Example 19, 4-(7-(2-cyclopropyl-5-ethoxy-4-methylbenzyl)-2,7-diazaspiro[3,5]nonan-2-yl)benzoic acid]"
2,potent SSTR5 antagonistic activity,"CCOc1cc(CN2CCC3(CC2)CN(c2ccc(C(=O)O)cc2)C3=O)cc(OCC)c1-c1ccc(F)cc1 [Example 18, 4-(7-((2,6-diethoxy-4′-fluoro-[1,1′-biphenyl]-4-yl)methyl)-1-oxo-2,7-diazaspiro[3.5]nonan-2-yl)benzoic acid]"
